Measured values as given in PMC4229968, “The Inhibition of the Components from Shengmai Injection towards UDP-Glucuronosyltransferase” (Evidence-based Complementary and Alternative Medicine : eCAM, 2014).

Key:
[1] = target: T1, UGT1A4 (Homo sapiens, UniProt P22310); test: Recombinant UGT1A4-catalyzed trifluoperazine (TFP) glucuronidation inhibition; type: in vitro ADME; conditions: for activity at 20 min, 100 μM: UGT1A4, 100 μM of compound, TFP substrate (40 μM), read-out: residual activity
T1 construct: purchased BD Gentest Corp. (Woburn, MA, USA); host or cells: baculovirus-infected insect cells
T1 sequence (P22310 29-534): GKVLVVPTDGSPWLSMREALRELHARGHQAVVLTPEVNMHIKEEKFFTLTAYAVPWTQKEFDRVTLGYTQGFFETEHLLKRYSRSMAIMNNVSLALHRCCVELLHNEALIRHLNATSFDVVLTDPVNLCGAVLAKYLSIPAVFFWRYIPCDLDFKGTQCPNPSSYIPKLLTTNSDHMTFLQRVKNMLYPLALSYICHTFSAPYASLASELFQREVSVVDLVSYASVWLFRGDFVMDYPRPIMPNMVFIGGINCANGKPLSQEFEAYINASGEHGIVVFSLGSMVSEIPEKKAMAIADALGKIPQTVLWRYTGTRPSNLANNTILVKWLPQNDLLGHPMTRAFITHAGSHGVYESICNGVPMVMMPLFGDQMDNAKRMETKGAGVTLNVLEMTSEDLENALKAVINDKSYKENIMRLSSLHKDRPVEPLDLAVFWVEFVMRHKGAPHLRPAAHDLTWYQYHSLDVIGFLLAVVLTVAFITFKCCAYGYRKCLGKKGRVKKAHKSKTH
Description: (§1) 4-Methylumbelliferone (4-MU), 4-methylumbelliferone-β-D-glucuronide (4-MUG), Tris-HCl, 7-hydroxycoumarin, and uridine-5′-diphosphoglucuronic acid (UDPGA) (trisodium salt) were purchased from Sigma-Aldrich (St. Louis, MO). Recombinant human UGT isoforms (UGT1A1, UGT1A3, UGT1A4, UGT1A6, UGT1A7, UGT1A8, UGT1A9, UGT1A10, UGT2B4, UGT2B7, and UGT2B15) expressed in baculovirus-infected insect cells were obtained from BD Gentest Corp. (Woburn, MA, USA). Ophiopogonin D (OD), ophiopogonin D′ (OD′), methylophiopogonanone A (MA), methylophiopogonanone B (MB), and ruscorectal (RU) were purchased from Sichuan Weikeqi Biotechnology Company (Chengdu, Sichuan, China). The purity of these compounds was above 95%. All other reagents were of HPLC grade or of the highest grade commercially available.
Therefore, UGT1A4-catalyzed trifluoperazine (TFP) glucuronidation was carried out to evaluate inhibition of maidong's components towards UGT1A4 activity. As previously reported, TFP (40 μM, near its K m value) was incubated with 0.1 mg/mL recombinant UGT1A4 for 20 min in the presence or absence of maidong's ingredients.
To determine the inhibition kinetic type and parameters (K i), the reaction velocity (V) was determined at multiple concentrations of maidong's components and 4-MU (or TFP). Dixon plot and Lineweaver-Burk plot were used to fit the data. The inhibition kinetic type was evaluated through determining the intersection point in the Dixon and Lineweaver-Burk plots.
K m value is the substrate concentration in which the velocity reached half of the maximum velocity (V max) of the reaction. K i value is the inhibition constant.

[2] = target: T2, UGT2B4 (Homo sapiens, UniProt P06133); test: Recombinant UGT2B4-catalyzed 4-MU glucuronidation inhibition; type: in vitro ADME; conditions: pH 7.4, probe 4-methylumbelliferone (4-MU), UGT2B4, 100 μM of compound, 4-MU substrate, read-out: residual activity
T2 construct: purchased BD Gentest Corp. (Woburn, MA, USA); host or cells: baculovirus-infected insect cells
T2 sequence (P06133 24-528): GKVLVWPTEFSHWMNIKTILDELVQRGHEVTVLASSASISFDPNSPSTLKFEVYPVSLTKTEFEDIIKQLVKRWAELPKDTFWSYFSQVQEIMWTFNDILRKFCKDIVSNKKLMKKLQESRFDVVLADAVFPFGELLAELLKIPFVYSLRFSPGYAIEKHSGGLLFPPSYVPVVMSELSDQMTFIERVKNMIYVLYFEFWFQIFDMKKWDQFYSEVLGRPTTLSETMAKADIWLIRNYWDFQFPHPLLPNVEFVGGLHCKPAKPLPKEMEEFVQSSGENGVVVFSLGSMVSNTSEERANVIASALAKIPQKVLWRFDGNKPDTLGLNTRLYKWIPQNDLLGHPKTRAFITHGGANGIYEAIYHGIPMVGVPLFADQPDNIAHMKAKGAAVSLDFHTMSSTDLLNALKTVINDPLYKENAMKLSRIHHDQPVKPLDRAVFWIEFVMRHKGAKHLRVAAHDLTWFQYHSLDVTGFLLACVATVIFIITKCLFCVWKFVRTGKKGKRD
Description: as §1
4-MU, the nonspecific probe substrate for all the UGT isoforms except UGT1A4, was used in the present study to initially screen the inhibition potential of maidong's components towards UGT isoforms as previously reported. In brief, the incubation system (total volume = 200 μL) consisted of recombinant UGTs, 5 mM UDPGA, 5 mM MgCl2, 50 mM Tris-HCl (pH = 7.4), and 4-MU in the absence or presence of different concentrations of maidong's components. The compounds were dissolved in DMSO, and the final concentration of DMSO was below 0.5% (v/v). The used incubation time and protein concentration were previously determined to ensure the reaction rate within the linear range. The 4-MU concentration was equal to known K m or S 50 values for each UGT isoform. After 5 min preincubation at 37°C, the incubation reaction was initiated via adding UDPGA to the mixture system. The reactions were quenched by adding 100 μL acetonitrile with 7-hydroxycoumarin (100 μM) as internal standard. Centrifuged at 20000 ×g for 10 min, an aliquot of supernatant was transferred to an autoinjector vial for HPLC analysis. The HPLC system (Shimadzu, Kyoto, Japan) contained a SCL-10A system controller, two LC-10AT pumps, a SIL-10A autoinjector, and a SPD-10AVP UV detector. Chromatographic separation was carried out using a C18 column (4.6 × 200 mm, 5 μm, Kromasil) at a flow rate of 1 mL/min and UV detector at 316 nm. The mobile phase consisted of acetonitrile (A) and H2O containing 0.5% (v/v) formic acid (B). The following gradient condition was used: 0–15 min, 95–40% B; 15–20 min, 10% B; 20–30 min, 95% B.

[3] = human, probe trifluoperazine (TFP)

Row | Structure (SMILES) | activity at 20 min, 100 μM [1, 3] [%] | activity at 100 µM [2] [%] | inhibition type ([1]; UGT1A4, TFP glucuronidation, Dixon and Lineweaver-Burk plots) | Ki ([1]; UGT1A4-catalyzed TFP glucuronidation, read-out: inhibition kinetic parameter (Ki)) [nM] | inhibition at 20 min, 100 µM ([1]; human, probe trifluoperazine (TFP), 40 μM, UGT1A4, at 100 μM, read-out: inhibition percent) [%]
1 | C[C@@H]1CC[C@@]2(OC1)O[C@H]1C[C@H]3[C@@H]4CC=C5C[C@@H](O)C[C@@H](O[C@@H]6O[C@H](C)[C@H](O)[C@H](O[C@@H]7OC[C@@H](O)[C@H](O)[C@H]7O)[C@H]6O[C@@H]6O[C@@H](C)[C@H](O)[C@@H](O)[C@H]6O)[C@]5(C)[C@H]4CC[C@]3(C)[C@H]1[C@@H]2C [OD, ophiopogonin D] | 24.6 ± 1.6 | 102 ± 2.6 | – | – | –
2 | C[C@@H]1CC[C@@]2(OC1)O[C@H]1C[C@H]3[C@@H]4CC=C5C[C@@H](O[C@@H]6O[C@H](CO)[C@@H](O)[C@H](O[C@@H]7OC[C@@H](O)[C@H](O)[C@H]7O)[C@H]6O[C@@H]6O[C@@H](C)[C@H](O)[C@@H](O)[C@H]6O)CC[C@]5(C)[C@H]4CC[C@]3(C)[C@H]1[C@@H]2C [OD′, ophiopogonin D′] | 21 ± 1.6 | 118 ± 21.8 | – | – | –
3 | Cc1c(O)c(C)c2c(c1O)C(=O)[C@H](Cc1ccc3c(c1)OCO3)CO2 [MA, methylophiopogonanone A] | 70.4 ± 3.8 | 71.1 ± 1.5 | – | – | –
4 | COc1ccc(C[C@@H]2COc3c(C)c(O)c(C)c(O)c3C2=O)cc1 [MB, methylophiopogonanone B] | 81.1 ± 8 | 73.2 ± 1.2 | – | – | –
5 | CC1CCC2(OC1)OC1CC3C4CC=C5CC(O)CC(O)C5(C)C4CCC3(C)C1C2C (stereo not shown) [RU, ruscorectal] | 0 | 88.4 ± 1.6 | competitive inhibition | 20 | ~100
